# Several values for one entry are separate records, joined by “and”; a condition that tells them apart may be missing. Equal entries are not always repeated. Where two headings read alike, the source gives them in different places.
# How the values were obtained:
# SFRP-1 [1] = biological target: T1, SFRP-1 (Homo sapiens, UniProt Q8N474); test: Cell-based assay for in vitro measurement of SFRP-1/SARP2 antagonist activity (U2OS cells co-transfected with 16x TCF-tk-Luciferase reporter, Wnt and hSFRP-1); conditions: for fold induction at 15 µM / fold induction at 10 µM: U2OS; for fold induction at 10 µM: read-out: Fold Induction with SFRP-1, U2OS cells, single dose 10 μM, luciferase reporter, fold induction over SFRP-1 control;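 for all read-outs here: U2OS cells co-transfected with a TCF-tk luciferase reporter, a Wnt vector, hSFRP-1 or empty vector and CMV-βgal, luciferase luminescence read in cell lysates alongside βgal activity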
# T1 sequence (Q8N474 32-314): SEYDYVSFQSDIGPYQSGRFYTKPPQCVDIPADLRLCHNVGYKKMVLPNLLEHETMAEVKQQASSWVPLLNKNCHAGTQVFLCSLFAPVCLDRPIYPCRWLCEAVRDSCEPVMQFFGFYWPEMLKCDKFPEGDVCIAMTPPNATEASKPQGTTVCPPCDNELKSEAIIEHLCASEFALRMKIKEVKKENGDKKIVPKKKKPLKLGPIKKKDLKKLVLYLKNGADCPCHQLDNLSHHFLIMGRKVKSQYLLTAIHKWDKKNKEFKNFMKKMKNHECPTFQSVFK
# SFRP-1 [2] = biological target: T1, SFRP-1; test: Fluorescence polarization binding assay (competitive displacement of a probe compound from SFRP-1); conditions: fluorescence anisotropy, 45 nM SFRP-1, 20 nM probe;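 note: test compound competes with a fluorescent probe held by SFRP-1, seen as a drop in probe anisotropy after incubation in darkness, with anisotropy as function of rising compound dose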
# [3] = read-out: Fold Induction with SFRP-1, Conc 15 μM, with SFRP-1, fold induction over SFRP-1 control, single dose
# [4] = read-out: Fold Induction without SFRP-1, Conc 15 μM, without SFRP-1, single dose
# [5] = read-out: Fold Induction with SFRP-1, Conc 15 μM, single dose, luciferase reporter, fold induction over SFRP-1 control, cells with SFRP-1
# [6] = read-out: Fold Induction without SFRP-1, Conc 15 μM, single dose, luciferase reporter, cells without SFRP-1 (specificity control)
Structure (SMILES),fold induction at 15 µM (SFRP-1 [1]; [3]),fold induction at 15 µM (SFRP-1 [1]; [4]),IC50 (SFRP-1 [2]),fold induction at 10 µM (SFRP-1 [1]),EC50 (SFRP-1 [1]) [nM],fold induction at 15 µM (SFRP-1 [1]; [5]),fold induction at 15 µM (SFRP-1 [1]; [6])
"CC(C)c1ccc(S(=O)(=O)c2ccc(F)cc2)cc1S(=O)(=O)NC[C@H](C)c1ccccc1 [Example 443, 5-[(4-fluorophenyl)sulfonyl]-2-isopropyl-N-[(2R)-2-phenylpropyl]benzenesulfonamide]",2.5,1.1,600 nM,–,–,–,–
"CC[C@H](CO)NS(=O)(=O)c1cc(S(=O)(=O)c2ccccc2)ccc1C(F)(F)F [Example 784, N-[(1R)-1-(hydroxymethyl)propyl]-5-(phenylsulfonyl)-2-(trifluoromethyl)benzenesulfonamide]",–,–,3000 nM,3,–,–,–
"CSCCC(=O)N1CCC(NS(=O)(=O)c2cc(S(=O)(=O)c3ccccc3)ccc2C(F)(F)F)CC1 [Example 1053, N-{1-[3-(methylthio)propanoyl]piperidin-4-yl}-5-(phenylsulfonyl)-2-(trifluoromethyl)benzenesulfonamide]",–,–,40 nM,–,190,–,–
"CC(C)c1ccc(S(=O)(=O)c2ccc(F)cc2)cc1S(=O)(=O)NC1CCN(C(=S)Nc2cccc3ccccc23)CC1 [Example 690, 4-[({5-[(4-fluorophenyl)sulfonyl]-2-isopropylphenyl}sulfonyl)amino]-N-1-naphthylpiperidine-1-carbothioamide]",–,–,3000 nM,2.3,8400,–,–
"CC(C)c1ccc(S(=O)(=O)c2ccc(NCCC#N)cc2)cc1S(=O)(=O)NCCn1ccnc1 [Example 450, 5-({4-[(2-cyanoethyl)amino]phenyl}sulfonyl)-N-[2-(1H-imidazol-1-yl)ethyl]-2-isopropylbenzenesulfonamide]",4,1,400 nM and 200 nM and 300 nM,–,–,–,–
"CCOC(=O)CCN(C)CCNS(=O)(=O)c1cc(S(=O)(=O)c2ccccc2)ccc1C(F)(F)F [Example 907, ethyl N-methyl-N-[2-({[5-(phenylsulfonyl)-2-(trifluoromethyl)phenyl]sulfonyl}amino)ethyl]-β-alaninate]",–,–,900 nM,2.2,–,–,–
"CC(C)c1ccc(S(=O)(=O)c2ccc(F)cc2)cc1S(=O)(=O)NCCc1cccnc1 [Example 534, 5-[(4-fluorophenyl)sulfonyl]-2-isopropyl-N-(2-pyridin-3-ylethyl)benzenesulfonamide]",–,–,200 nM and 300 nM,–,–,4,1.1
"Cc1ccc(S(=O)(=O)c2ccc3[nH]ccc3c2)cc1S(=O)(=O)NCCc1ccccn1 [Example 427, 5-(1H-indol-5-ylsulfonyl)-2-methyl-N-(2-pyridin-2-ylethyl)benzenesulfonamide]",2,0.9,1100 nM,–,–,–,–
"O=S(=O)(NCCN1CCOCC1)c1cc(S(=O)(=O)c2ccccc2)ccc1C(F)(F)F [Example 766, N-(2-morpholin-4-ylethyl)-5-(phenylsulfonyl)-2-(trifluoromethyl)benzenesulfonamide]",–,–,400 nM,2.7,1220,–,–
"CC(=O)N1CCC(NS(=O)(=O)c2cc(S(=O)(=O)c3ccc(F)cc3)ccc2C(C)C)CC1 [Example 529, N-(1-acetylpiperidin-4-yl)-5-[(4-fluorophenyl)sulfonyl]-2-isopropylbenzenesulfonamide]",–,–,500 nM,–,–,2.8,1
"Cc1ccc(S(=O)(=O)c2ccccc2)cc1S(=O)(=O)NC1CCN(C(=O)c2ccno2)CC1 [Example 485, N-[1-(isoxazol-5-ylcarbonyl)piperidin-4-yl]-2-methyl-5-(phenylsulfonyl)benzenesulfonamide]",–,–,1700 nM,–,–,2.5,1
CN(CCCNS(=O)(=O)c1cc(S(=O)(=O)c2ccccc2)ccc1C(F)(F)F)C(=O)NC1CCN(C(=O)OC(C)(C)C)CC1 [Example 955],–,–,6000 nM,2.4,5160,–,–

# Source: patent US20060276464A1, “Diarylsulfone sulfonamides and use thereof” (Wyeth, priority 2005, published 2006)
